Converted amounts (≈) assume the structure as drawn. “And” between values parts separate entries of the source, which are not always exact repeats. Identical values can stand only once. Like-named read-outs stand apart in the source and are kept apart here.
How the values were obtained:
murine PDXP/PGP hybrid = target: T1, murine PDXP/PGP hybrid (Mus musculus, UniProt P60487+Q8CHP8); test: PG dephosphorylation by PDXP/PGP hybrid protein; type: biochemical
T1 construct: consisting of the PGP cap domain (amino acids 114–233) fused to the PDXP core domain; His6 (N, cleaved yes); made in house; host or cells: Escherichia coli BL21 (DE3), pETM11
T1 sequence (P60487 1-100): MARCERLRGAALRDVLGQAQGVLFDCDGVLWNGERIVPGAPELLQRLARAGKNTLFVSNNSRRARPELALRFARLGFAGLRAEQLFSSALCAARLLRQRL
T1 sequence (Q8CHP8 114-233): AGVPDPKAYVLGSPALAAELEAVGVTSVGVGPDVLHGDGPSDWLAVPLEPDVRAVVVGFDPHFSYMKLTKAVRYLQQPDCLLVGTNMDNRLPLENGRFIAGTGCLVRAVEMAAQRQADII
T1 sequence (P60487 208-292): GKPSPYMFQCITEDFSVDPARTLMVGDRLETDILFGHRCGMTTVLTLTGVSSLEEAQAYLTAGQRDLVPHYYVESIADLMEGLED
Experimental: After centrifugation, cells were resuspended in TNM-2 (100 mM triethanolamine, 500 mM NaCl, 20 mM imidazole, 5 mM MgCl2; pH 7.4). Cleared supernatants were loaded on a HisTrap HP nickel sepharose column in TNM-3 (50 mM triethanolamine, 500 mM NaCl, 20 mM imidazole, 5 mM MgCl2; pH 7.4), and His6-tagged proteins were eluted using a linear gradient of up to 50% TNM-4 (50 mM triethanolamine; 250 mM NaCl; 500 mM imidazole; 5 mM MgCl2; pH 7.4). Peak fractions were pooled, the His6-tag was cleaved, and untagged PDXP or PDXP/PGP was isolated, concentrated and further purified by size exclusion chromatography in TNM-5 (50 mM triethanolamine; 250 mM NaCl; 5 mM MgCl2; pH 7.4). […] Data were analyzed with GraphPad Prism 7.04.

PGP^WT = target: T2, PGP^WT (Mus musculus, UniProt Q8CHP8); test: Differential scanning fluorimetry (Thermofluor); type: binding
T2 construct: His6 (N, cleaved yes); made in house; host or cells: Escherichia coli BL21 (DE3), pETM11, co-expressed with groES-groEL-tig
T2 sequence (Q8CHP8 1-321): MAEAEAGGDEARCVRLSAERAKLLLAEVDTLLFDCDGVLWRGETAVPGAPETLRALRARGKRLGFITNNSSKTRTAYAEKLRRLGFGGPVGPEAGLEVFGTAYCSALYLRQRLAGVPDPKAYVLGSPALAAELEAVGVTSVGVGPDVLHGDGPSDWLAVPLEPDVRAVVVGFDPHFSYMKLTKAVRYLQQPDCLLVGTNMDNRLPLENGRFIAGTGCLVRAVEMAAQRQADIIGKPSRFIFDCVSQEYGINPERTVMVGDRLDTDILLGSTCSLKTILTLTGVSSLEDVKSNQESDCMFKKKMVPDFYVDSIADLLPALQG

physchem = conditions: organic solvent or mixture
murine PGP [1] = target: T3, murine PGP (Mus musculus, UniProt Q8CHP8); test: biochemical
T3 sequence (Q8CHP8 1-321): T2 sequence (Q8CHP8 1-321)

murine PDXP = target: T4, murine PDXP (Mus musculus, UniProt P60487); test: PDXP activity towards pyridoxal 5'-phosphate (PLP); conditions: phosphatase PDXP; species M.m.; substrate PLP; n.s. = no significant inhibition detectable
T4 sequence (P60487 1-292): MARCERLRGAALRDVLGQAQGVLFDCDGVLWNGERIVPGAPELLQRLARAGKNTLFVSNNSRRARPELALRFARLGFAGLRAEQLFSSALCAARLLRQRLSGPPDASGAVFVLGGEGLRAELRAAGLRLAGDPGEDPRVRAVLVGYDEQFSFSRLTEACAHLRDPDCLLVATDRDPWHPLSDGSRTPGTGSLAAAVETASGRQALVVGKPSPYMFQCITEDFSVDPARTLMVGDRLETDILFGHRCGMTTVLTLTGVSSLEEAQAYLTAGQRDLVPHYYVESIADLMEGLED

murine PGP [2] = target: T3, murine PGP; test: IC50 determination, murine PGP, pNPP dephosphorylation
PGP = target: T5, PGP (Mus musculus, UniProt Q8CHP8); test: Steady state kinetics of PG dephosphorylation in presence of CP1-3; conditions: for PGP activity: 0,5 µM CP1
T5 sequence (Q8CHP8 1-321): T2 sequence (Q8CHP8 1-321)

O=C(Nc1ccccc1C(=O)O)c1ccc(Oc2ccc(C(=O)Nc3ccccc3C(=O)O)cc2)cc1 [CP1]
remaining activity at 16 µM (murine PDXP/PGP hybrid; activity, control = 100, CP log[M] -4.79588): 22% | remaining activity at 4 µM (murine PDXP/PGP hybrid; activity, control = 100, CP log[M] -5.39794): 59.9% | remaining activity at 2 µM (murine PDXP/PGP hybrid; activity, control = 100, CP log[M] -5.69897): 72% | remaining activity at 1 µM (murine PDXP/PGP hybrid; activity, control = 100, CP log[M] -6): 77.3% | remaining activity at 0.5 µM (murine PDXP/PGP hybrid; activity, control = 100, CP log[M] -6.30103): 82.6% | remaining activity at […] (murine PDXP/PGP hybrid; activity, control = 100, CP log[M] -6.60206): 92.4% | remaining activity at 0.125 µM (murine PDXP/PGP hybrid; activity, control = 100, CP log[M] -6.90309): 90.9% | remaining activity at 0.0625 µM (murine PDXP/PGP hybrid; activity, control = 100, CP log[M] -7.20412): 93.9% | remaining activity at 0.015625 µM (murine PDXP/PGP hybrid; activity, control = 100, CP log[M] -7.80618): 101% | IC50 (murine PDXP/PGP hybrid; phosphatase PDXP/PGP, species M.m., substrate PG): 13800 ± 1430 nM | TM (PGP^WT; Inhibitor 0.244141 µM): 66.6 °C | TM (PGP^WT; Inhibitor 0.488281 µM): 66.6 °C | TM (PGP^WT; Inhibitor 0.976562 µM): 66.8 °C | TM (PGP^WT; Inhibitor 1.95312 µM): 67.0 °C | TM (PGP^WT; Inhibitor 3.90625 µM): 67.7 °C | TM (PGP^WT; Inhibitor 7.8125 µM): 68.6 °C | TM (PGP^WT; Inhibitor 15.625 µM): 69.6 °C | TM (PGP^WT; Inhibitor 31.25 µM): 70.5 °C | TM (PGP^WT; Inhibitor 62.5 µM): 71.0 °C | TM (PGP^WT; Inhibitor 125 µM): 71.0 °C | TM (PGP^WT; Inhibitor 250 µM): 70.1 °C | increase in the maximal PGP melting temperature (PGP^WT; from 66.4 °C (control conditions)): 4.6 ° | solubility (physchem): 100 mM (≈ 49.6 mg/mL) | IC50 (murine PGP [1]): 370 nM and 400 nM | IC50 (murine PDXP): n.s. | IC50 (murine PGP [2]): 770 ± 50 nM | remaining activity at 25 µM (murine PGP [2]; read-out: M.m PGP on pNPP, activity, control = 100.00, CP log[M] -4.60206): 3.52% | remaining activity at 10 µM (murine PGP [2]; read-out: M.m PGP on pNPP, activity, control = 100.00, CP log[M] -5): 6.83% | remaining activity at […] (murine PGP [2]; read-out: M.m PGP on pNPP, activity, control = 100.00, CP log[M] -5.60206): 23.4% | remaining activity at 1 µM (murine PGP [2]; read-out: M.m PGP on pNPP, activity, control = 100.00, CP log[M] -6): 47.8% | remaining activity at 0.5 µM (murine PGP [2]; read-out: M.m PGP on pNPP, activity, control = 100.00, CP log[M] -6.30103): 65% | remaining activity at […] (murine PGP [2]; read-out: M.m PGP on pNPP, activity, control = 100.00, CP log[M] -6.60206): 85% | remaining activity at 0.125 µM (murine PGP [2]; read-out: M.m PGP on pNPP, activity, control = 100.00, CP log[M] -6.90309): 91.3% | remaining activity at 0.0625 µM (murine PGP [2]; read-out: M.m PGP on pNPP, activity, control = 100.00, CP log[M] -7.20412): 99.4% | remaining activity at 0.03125 µM (murine PGP [2]; read-out: M.m PGP on pNPP, activity, control = 100.00, CP log[M] -7.50515): 100% | mode of PGP inhibition (PGP): mixed mode of inhibition | PGP activity (PGP; PG 50 µM): 1.261 µmol Pi/min/mg and 1.442 µmol Pi/min/mg | PGP activity (PGP; PG 100 µM): 3.424 µmol Pi/min/mg and 4.325 µmol Pi/min/mg and 3.784 µmol Pi/min/mg | PGP activity (PGP; PG 200 µM): 7.208 µmol Pi/min/mg and 7.809 µmol Pi/min/mg and 7.689 µmol Pi/min/mg
